This note sets out measurements from patent US9055743B2, “Alpha, beta-unsaturated imines” (BAYER INTELLECTUAL PROPERTY GMBH, priority 2010, dated 2015).

Holding throughout (format): in vivo
For test [1], the system named is greenhouse red spider mite (Tetranychus urticae). Description: Tetranychus test; OP-resistant (TETRUR spray treatment). The following applies: 500 g/ha, spray, after 6 days. As for the experimental part:
Tetranychus Test; OP-Resistant (TETRUR Spray Treatment) Solvents: 78.0 parts by weight of acetone • • 1.5 parts by weight of dimethylformamide Emulsifier: 0.5 part by weight of alkylaryl polyglycol ether
(§1) To produce a suitable preparation of active compound, 1 part by weight of active compound is mixed with the stated amounts of solvents and emulsifier, and the concentrate is diluted with emulsifier-containing water to the desired concentration.
Discs of bean leaves (Phaseolus vulgaris) infested by all stages of the greenhouse red spider mite (Tetranychus urticae) are sprayed with an active compound preparation of the desired concentration.
After 6 days, the activity in % is determined. 100% means that all spider mites have been killed; 0% means that none of the spider mites have been killed.

In test [2] the test system is cat fleas (Ctenocephalides felis, fully sensitive laboratory strain). Kind of test: Contact test against fleas in-vitro (CTECFE contact). The following applies: 500 g/ha, after 48 h. The procedure: Contact Test Against Fleas In-Vitro (CTECFE Contact)
An amount of 0.9 mg of active compound is weighed out, and 1 ml of acetone is added.
Of this acetone solution, either […] are transferred directly into roll-necked test tubes or an aliquot is diluted with 4 parts of acetone 1:5. For its part, 250 μl of this dilution are pipetted into roll-necked test tubes, or the dilution is diluted further, etc., until the desired number of dilution steps is reached.
The roll-necked test tubes containing the solution of the active compound in acetone are immediately coated in a fume cupboard by 2 h of swing rotation at 30 rpm. After evaporation of the solvent, the active compound contained in the acetone gives, at the highest concentration tested, an active compound content of 500 g/ha (or 500 μg/dm^2) on the surface of the test tube.
10-20 Adult cat fleas (Ctenocephalides felis, fully sensitive laboratory strain) anesthetized with CO2 are transferred into the test tubes prepared in this manner, and the test tubes are closed with a plastic roll-necked lid provided with fine holes.
The test tubes are stored vertically at room temperature and humidity for 24 or 48 h. After 24 and 48 h, the activity of the active compound applied is determined by comparison with an acetone-treated control. Here, an observed normal activity for all fleas corresponds to 0% activity, a strongly restricted or uncoordinated (knock-down) movement or death of all fleas corresponds to 100% activity.

The subject of test [3] is caterpillars of the army worm (Spodoptera frugiperda). Description: Spodoptera frugiperda test (SPODFR spray treatment). The following applies: 500 g/ha, spray, after 7 days. The procedure:
Spodoptera frugiperda Test (SPODFR Spray Treatment) Solvents: 78.0 parts by weight of acetone • • 1.5 parts by weight of dimethylformamide Emulsifier: 0.5 part by weight of alkylaryl polyglycol ether
as §1
Discs of maize leaves (Zea mays) are sprayed with an active compound preparation of the desired concentration and, after drying, populated with caterpillars of the army worm (Spodoptera frugiperda) besetzt.
After 7 days, the activity in % is determined. 100% means that all caterpillars have been killed; 0% means that none of the caterpillars have been killed.

The test system of test [4] is Aedes aegypti. Description: Aedes test (AEDSAE surface treatment). The following applies: for knock-down activity: 100 mg/m^2, two hours after contact, exposition 30 minutes. As for the experimental part:
Aedes Test (AEDSAE Surface Treatment)
To produce a suitable preparation of active compound, the active compound is dissolved in acetone (2 mg/ml). The active compound preparation is pipetted onto a glazed tile and, after drying, adult mosquitoes of the species Aedes aegypti are placed onto the treated tile. The exposition time is 30 minutes.
(§2) Two hours after contact to the treated surface, the knock-down proportion of the test animals in % is determined.
24 hours after contact to the treated surface, the mortality in % is determined Here, 100% means that all mosquitoes have been killed; 0% means that none of the mosquitoes has been killed.

Test [5] deals with Anopheles gambiae (homocygus kdr). Description: Anopheles test (ANPHGB surface treatment). The conditions noted are these: 100 mg/m^2, two hours after contact, exposition 30 minutes. As for the experimental part:
Anopheles Test (ANPHGB Surface Treatment) Solvent: Acetone
To produce a suitable preparation of active compound, the active compound is dissolved in acetone (2 mg/ml). The active compound preparation is pipetted onto a glazed tile and, after drying, adult mosquitoes of the species Anopheles gambiae (homocygus kdr) are placed onto the treated tile. The exposition time is 30 minutes.
as §2
24 hours after contact to the treated surface, the mortality in % is determined. Here, 100% means that all mosquitoes have been killed; 0% means that none of the mosquitoes has been killed.

For test [6], the system named is larvae of the mustard beetle (Phaedon cochleariae). Kind of test: Phaedon test (PHAECO spray treatment). The conditions noted are these: 500 g/ha, spray, after 7 days. As for the experimental part:
Phaedon Test ([…] Spray Treatment) Solvents: 78.0 parts by weight of acetone • • 1.5 parts by weight of dimethylformamide Emulsifier: 0.5 part by weight of alkylaryl polyglycol ether To produce a suitable preparation of active compound, 1 part by weight of active compound is mixed with the stated amounts of solvents and emulsifiers, and the concentrate is diluted with emulsifier-containing water to the desired concentration. Discs of Chinese cabbage leaves (Brassica pekinensis) are sprayed with an active compound preparation of the desired concentration and, after drying, populated with larvae of the mustard beetle (Phaedon cochleariae).

Test [7] relates to green peach aphid (Myzus persicae). Description: Myzus test (MYZUPE spray treatment). The conditions noted are these: 500 g/ha, spray, after 6 days. As for the experimental part:
Myzus Test (MYZUPE Spray Treatment) Solvents: 78 parts by weight of acetone • • 1.5 parts by weight of dimethylformamide Emulsifier: 0.5 part by weight of alkylaryl polyglycol ether
as §1
Discs of Chinese cabbage leaves (Brassica pekinensis) which are infested by all stages of the green peach aphid (Myzus persicae) are sprayed with an active compound preparation of the desired concentration.
After 6 days, the activity in % is determined. 100% means that all aphids have been killed; 0% means that none of the aphids have been killed.

Structures are written as SMILES.

For the molecule `COc1ccc(N=C2C(=CSc3ccccc3)C(C)c3ccccc32)cc1` (mixture of isomers) [Example 1-22], in test [1], the “activity (spider mites killed)” value is 90%. The “activity against cat fleas” value in test [2] was 100%. In test [3], the “activity (caterpillars killed)” value was determined as 100%.
For `Cc1ccc(N=C2C=CC(C)(C)CC2=CSc2ccc(F)cc2)cc1` (mixture of isomers) [Example 1-44], the “activity (spider mites killed)” value in test [1] came out at 90%. Also, the knock-down activity in test [4] turned out to be 90%; in test [5] it was 100%. In addition, the “activity (caterpillars killed)” value in test [3] is listed as 83%.
On to `Cc1ccc(N=C2C(=CSc3ccc(F)cc3)C(C)c3cc(C)ccc32)cc1` (mixture of isomers) [Example 1-51], for which the figures for the knock-down activity in test [4] and in test [5] were 85% and 100%, respectively. Also, the “activity (beetle larvae killed)” value in test [6] amounted to 100%. Besides, the “activity (caterpillars killed)” value in test [3] is recorded as 100%. In addition, the “activity (aphids killed)” value in test [7] came to 100%.
Regarding `COc1ccc2c(c1)C(C)C(=CSc1ccc(F)cc1)C2=Nc1ccc(C)cc1` (mixture of isomers) [Example 1-65], in test [1], the “activity (spider mites killed)” value is 100%. Also, the knock-down activity is listed as 85% in test [4] and 100% in test [5]. In addition, the “activity (beetle larvae killed)” value in test [6] was 100%. Moreover, in test [3], the “activity (caterpillars killed)” value is on record as 100%. Also, the “activity (aphids killed)” value in test [7] is given as 100%.
Take `CCOC1=CC(=CSc2ccc(F)cc2)C(=Nc2ccc(C)cc2)CC1` (mixture of isomers) [Example 1-96]: the “activity (spider mites killed)” value in test [1] worked out at 90%. This molecule also came in with a knock-down activity in test [4] of 80%. For the same molecule, in test [7], the “activity (aphids killed)” value is 90%.
Consider `C(Sc1ccccc1)=C1CCc2ccccc2C1=Nc1ccccc1` [Example 1-8], for which the “activity (spider mites killed)” value in test [1] stood at 100%. In test [6], the “activity (beetle larvae killed)” value was determined as 100%. Moreover, in test [2], the “activity against cat fleas” value was found to be 100%. Also, the “activity (caterpillars killed)” value in test [3] is on record as 100%. Further, the knock-down activity in test [5] was determined as 85%.
Consider `Cc1ccc(N=C2C(=CSc3ccc(F)cc3)CC(C)c3ccccc32)cc1` (stereo not drawn) [Example 1-14], for which, in test [1], the “activity (spider mites killed)” value worked out at 100%. Moreover, the “activity (beetle larvae killed)” value in test [6] was found to be 100%. In addition, the “activity against cat fleas” value in test [2] was 100%. Also, the “activity (caterpillars killed)” value in test [3] came to 100%. The knock-down activity in test [5] is recorded as 95%. In test [7], the “activity (aphids killed)” value worked out at 100%.
As to `Cc1ccc(N=C2C(=CSc3ccc(F)cc3)CCc3ccc(F)cc32)cc1` [Example 1-15], the “activity (spider mites killed)” value in test [1] was 100%. Further, the “activity (beetle larvae killed)” value in test [6] stood at 100%. The “activity against cat fleas” value in test [2] is reported as 100%. Also, in test [3], the “activity (caterpillars killed)” value is on record as 100%. In test [7], the “activity (aphids killed)” value stood at 100%.
`Cc1ccc(N=C2C(=CSc3ccc(F)cc3)COc3ccc(F)cc32)cc1` [Example 1-23]: the “activity (beetle larvae killed)” value in test [6] is 100%. Further, the “activity against cat fleas” value in test [2] is listed as 100%. Further, the “activity (caterpillars killed)” value in test [3] stood at 100%.
On to `COc1cccc2c1CCC(=CSc1ccc(F)cc1)C2=Nc1ccc(C)cc1` [Example 1-31], for which the “activity (spider mites killed)” value in test [1] was found to be 100%. Further, the “activity against cat fleas” value in test [2] came out at 100%. Further, in test [3], the “activity (caterpillars killed)” value amounted to 100%.
Consider `COc1ccc2c(c1)C(=Nc1ccc(C)cc1)C(=CSc1ccc(F)cc1)CC2` [Example 1-32], for which the “activity (spider mites killed)” value in test [1] was determined as 100%. Further, the “activity against cat fleas” value in test [2] amounted to 100%. Besides, in test [3], the “activity (caterpillars killed)” value turned out to be 100%.
For `Cc1ccc(N=C2C(=CSc3ccc(F)cc3)CCc3ccccc32)cc1C` [Example 1-41], in test [1], the “activity (spider mites killed)” value was determined as 80%. For the same molecule, the knock-down activity turned out to be 95% in test [4] and 100% in test [5]. The “activity (beetle larvae killed)” value in test [6] was 100%. Besides, the “activity (caterpillars killed)” value in test [3] came to 100%. The “activity (aphids killed)” value in test [7] amounted to 90%.
Consider `Cc1ccc(N=C2C(=CSc3ccc(F)cc3)CCc3cc(Cl)ccc32)cc1` [Example 1-47], for which, in test [1], the “activity (spider mites killed)” value is recorded as 100%. In test [6], the “activity (beetle larvae killed)” value is 100%. The “activity against cat fleas” value in test [2] is 100%. In addition, the “activity (caterpillars killed)” value in test [3] came out at 100%. The molecule also came in with a knock-down activity in test [5] of 85%. Besides, in test [7], the “activity (aphids killed)” value came to 100%.
With `Cc1ccc(N=C2C(=CSc3ccc(F)cc3)CCc3nc(Cl)ccc32)cc1` [Example 1-54], in test [1], the “activity (spider mites killed)” value is 80%. For the same molecule, in test [6], the “activity (beetle larvae killed)” value was found to be 100%. Also, the “activity against cat fleas” value in test [2] came out at 100%. For the same molecule, the “activity (caterpillars killed)” value in test [3] is 100%. For the same molecule, the “activity (aphids killed)” value in test [7] turned out to be 80%.
Take `Cc1ccc(N=C2C(=CSc3ccc(F)cc3)CSc3cc(C)ccc32)cc1` [Example 1-76]: the knock-down activity in test [4] stood at 80%; in test [5], 100%.
Regarding `Cc1ccc(N=C2C(=CSc3ccc(F)cc3)COc3cccc(C)c32)cc1` [Example 1-86], the knock-down activity in test [4] came out at 95%; in test [5], 100%.
The mortality is the share of the test organisms that died. For the molecule `CCOC1=CC(=Nc2ccc(C)cc2)C(=CSc2ccc(F)cc2F)CC1` [Example 1-98, N-(6-{[(2,4-Difluorophenyl)sulphanyl]methylene}-3-ethoxycyclohex-2-en-1-ylidene)-4-methylaniline], the pest or weed control at 500 g/ha is 100% in test [1] (Tetranychus urticae, 144 h, read-out: activity (spider mites killed)) and 83% in test [3] (Spodoptera frugiperda, 168 h, read-out: activity (caterpillars killed)). Further, the mortality at 100 mg/m2 in test [4] (Aedes aegypti, read-out: activity (mortality in %)) was 80%.
`Cc1ccc(N=C2C(=CSc3cccc(F)c3)C3CCC2C3)cc1` (stereo not drawn) [Example 1-102]: the knock-down activity in test [4] and in test [5] was 100% each time.
On to `Cc1ccc(N=C2C(=CSc3ccccc3F)C3CCC2C3)cc1` (stereo not drawn) [Example 1-103], for which the knock-down activity in test [4] and in test [5] was 100% throughout.
On to `c1ccc(N=C2c3ccccc3CCC2C(Sc2ccccc2)Sc2ccccc2)cc1` (stereo not drawn) [Example 2-2], for which the knock-down activity in test [4] and in test [5] was 100% each time.
Turning to `Cc1ccc(N=C2c3ccccc3OCC2C(Sc2ccc(F)cc2)Sc2ccc(F)cc2)cc1` (stereo not drawn) [Example 2-11], the “activity (spider mites killed)” value in test [1] is 100%. Besides, the “activity (beetle larvae killed)” value in test [6] was determined as 100%. The “activity against cat fleas” value in test [2] stood at 100%. Further, the “activity (caterpillars killed)” value in test [3] is on record as 100%. Also, in test [7], the “activity (aphids killed)” value amounted to 100%.
